# Measurements as given in patent publication US20120289602A1, “PHARMACEUTICAL COMPOSITION FOR TREATING OR PREVENTING BURN INJURIES” (priority 2009, published 2012).
# What was measured:
# Assay type in all cases: in vivo
# [1] = test system: contact burn injury on the back of rats; assay: Measurement of lactate dehydrogenase in serum through blood chemistry after burn injury; settings: 10 mg/5 ml/kg intravenously twice a day, FIG. 1
# Protocol: (§1) To confirm the therapeutic effect of 2-hydroxy-TTBA against burn injury, contact burn injury is induced for 30 seconds on the back of rats (on the both side of skin) using a brass comb preheated for 3 minutes in the boiling water (maintaining at 100° C.). After 5 minutes, 2-hydroxy-TTBA 10 mg/5 ml/kg were administered to intravenously for 5 minutes. Since then, twice-a-day administration (at an interval of 10˜12 hours) was sustained for 7 days on the same conditions. The same amount of saline without the compound was administered to the vehicle-treated group in the same manner. Groups of burn experiments were the same as below table 1.
# The Measurement of Lactate Dehydrogenase in Serum Through Blood Chemistry
# Lactate dehydrogenase (LDH) is an enzyme distributed to almost all the tissues and catalyzing reversible reactions between pyruvic acid and lactic acid.
# It is known that serum LDH level is elevated when tissues and cells are destroyed. Thus, the amount of LDH was measured in serum samples from each group except hemolyzed samples that may interfere with test results.
# [2] = test system: contact burn injury on the back of rats; assay: Histology of zone of stasis after burn injury (hematoxylin-eosin, cresyl violet, Masson's trichrom staining)
# Protocol: as §1
# FIG. 3 is the result comparing the state of the epithelial layer through hematoxylin-eosin staining of tissues according to the groups. […] Some cases that hyperplasia of epidermis thicker than normal epithelial layers occurred could be also observed.
# Eschar formation and frequency of wound epidermis formation was measured by analyzing total 28 tissue areas per group (4 zones of stasis per rat, 7 rats per group). As a result, the wound switching frequency of approximately 93% occurred in the burn control group was decreased to about 18% and 4%, respectively, in the veheicle-treated and 2-hydroxy-TTBA-treated groups. Also, the rate of wound epidermis formation was increased by approximately 32% and 72%, respectively, in comparison with the burn control group. The result was shown in the below table 2 (histological appearance: Eschar Formation and frequency of wound epidermis formation).
# FIG. 4 was the photograph that observed the state of tissues of full-thickness skin through hematoxylin-eosin staining via 10× microscope.
# FIG. 5 is the photograph observed the live cells in the zone of stasis by cresyl violet staining via 10× microscope. In the burn control group and the vehicle-treated group, follicles were rarely observed and large amounts of inflammatory cells were observed throughout the full-thickness skin.
# FIG. 6 is the photograph that observed collagen of skin tissues and muscle fibers in the zone of stasis by Masson's trichrom staining. In the normal group, blue-stained collagen was evenly distributed throughout the dermis, and muscle fibers were stained red. In the burn control group, collagen was deposited irregularly below eschar, the level of staining was weak relative to the normal group. Almost of the muscle fibers were damaged and were not stained. In the vehicle-treated group, the amount of collagen was most abundantly observed relative to the other groups, even to a very high level compared to the normal control. In addition, the muscle fibers with damage were not stained, and significant amount of bleeding and infiltration of inflammatory cells were accompanied.
# [3] = test system: contact burn injury on the back of rats; assay: Observation of skin appearance on the back after burn injury (zone of stasis); settings: skin on the back 7 days after burn injury, FIG. 2
# Protocol: as §1
# FIG. 2 is photographs that observed skin on the back 7 days after burn injury. Full thickness burns were induced in the both sides of back of experimental rats using a preheated brass comb with 4 rectangular shapes of size 10×20 mm. At 2 hours after induction, 4 pale-colored or darkish zones of coagulation (or zones of tissue necrosis) and 3 zones of stasis (or zones of tissue injury) appeared on the both sides of back. […]
# Therefore, to evaluate the efficacy in this experiment, among the zone of stasis, the remaining 4 regions (a rectangular area indicated the dotted lines) except regions toward the head close to a medication vest among 6 areas appeared in a single rat were analyzed.
# [4] = test system: contact burn injury on the back of rats; assay: Contact burn injury in rats: animals that died within 7 days; settings: within 7 days after burn injury, 10 mg/5 ml/kg intravenously, twice a day for 7 days, 7 animals in group
# Protocol: as §1
# When analyzing the results, number of animals of the normal group for comparison, number of animals in each group, and the number of animals that died within 7 days after the burn injury were shown in above table 1. Two rats in the burn control group died at 5 and 7 days, respectively, after burn injury, but all of another experimental group survived.
# [5] = 28 tissue areas per group (4 zones of stasis per rat, 7 rats), 7 days after burn
# [6] = zone of stasis, 7 days after burn, FIG. 4
smiles,measurement,setting,value
"O=C(O)c1cc(NCc2c(F)c(F)c(C(F)(F)F)c(F)c2F)ccc1O [2-hydroxy-TTBA, 2-Hydroxy-5-(2,3,5,6-tetrafluoro-4-trifluoromethyl-benzylamino)-benzoic acid]",LDH value in serum compared to burn control group,[1],reduced significantly
same,"rate of wound epidermis formation, increase in comparison with the burn control group",[2]; 28 tissue areas per group,~72%
same,Eschar formation (%),[2]; [5],3.571%
same,Wound epidermis formation (%),[2]; [5],71.429%
same,Eschar formation frequency,"[2]; 28 tissue areas per group, approximately 93% in burn control group",~4%
same,"State of the epithelial layer, hematoxylin-eosin staining",[2]; FIG. 3,wound epidermis formation was in progress
same,"Inflammatory cells in the zone of stasis, cresyl violet staining",[2]; FIG. 5,relatively few inflammatory cells were observed
same,"Live cells in the zone of stasis, cresyl violet staining",[2]; FIG. 5,live follicles and epithelia were observed
same,"Infiltration of inflammatory cells in full-thickness skin, hematoxylin-eosin staining",[2]; [6],considerably inhibited except in the areas of muscle cells and subcutaneous tissues
same,"Protection of skin structures in full-thickness skin, hematoxylin-eosin staining",[2]; [6],"not only a wound epidermis formation but also protective effects even in the hair follicles, sebaceous glands and muscle layers appeared"
same,Skin condition by the naked eye,[3],restored to such a good skin condition that hair growth can be observed by the naked eye
same,Formation of eschar such as scab (skin appearance),[3]; zone of stasis,occurred rarely
same,Number of dead animals,[4],0
